Source: the NIST ThermoML archive (doi:10.1021/je050001c)
± gives the expanded uncertainty stated by the source. Blank lines part the entries; values can stand above or below the molecule they belong to.

Details: 101.33 kPa, Liquid
[1] = 293.15 K, Falling or rolling sphere viscometry
[2] = 298.15 K, Falling or rolling sphere viscometry
[3] = 303.15 K, Falling or rolling sphere viscometry
[4] = 308.15 K, Falling or rolling sphere viscometry
[5] = 313.15 K, Falling or rolling sphere viscometry
[6] = 318.15 K, Falling or rolling sphere viscometry
[7] = 323.15 K, Falling or rolling sphere viscometry
[8] = 328.15 K, Falling or rolling sphere viscometry
[9] = 333.15 K, Falling or rolling sphere viscometry
[10] = 338.15 K, Falling or rolling sphere viscometry
[11] = 343.15 K, Falling or rolling sphere viscometry

Structure (SMILES): CCCCCC(=O)OCC [ethyl hexanoate]
mass density (293.15 K): 879.01 ± 3.3 kg/m3 | viscosity [1]: 0.816 ± 0.011 mPa·s | mass density (298.15 K): 872.53 ± 3.4 kg/m3 | viscosity [2]: 0.757 ± 0.011 mPa·s | mass density (303.15 K): 869.31 ± 3.5 kg/m3 | viscosity [3]: 0.704 ± 0.011 mPa·s | mass density (308.15 K): 866.74 ± 3.5 kg/m3 | viscosity [4]: 0.656 ± 0.01 mPa·s | mass density (313.15 K): 863.28 ± 3.6 kg/m3 | viscosity [5]: 0.614 ± 0.01 mPa·s | mass density (318.15 K): 860.19 ± 3.6 kg/m3 | viscosity [6]: 0.576 ± 0.01 mPa·s | mass density (323.15 K): 856.42 ± 3.7 kg/m3 | viscosity [7]: 0.541 ± 0.01 mPa·s | mass density (328.15 K): 851.93 ± 3.8 kg/m3 | viscosity [8]: 0.509 ± 0.009 mPa·s | mass density (333.15 K): 847.88 ± 3.8 kg/m3 | viscosity [9]: 0.482 ± 0.009 mPa·s | mass density (338.15 K): 845.32 ± 3.9 kg/m3 | viscosity [10]: 0.456 ± 0.009 mPa·s | mass density (343.15 K): 841.46 ± 4 kg/m3 | viscosity [11]: 0.429 ± 0.009 mPa·s

Structure (SMILES): CCOC=O [ethyl methanoate]
mass density (293.15 K): 917.82 ± 2.8 kg/m3 | viscosity [1]: 0.402 ± 0.009 mPa·s | mass density (298.15 K): 912.06 ± 2.9 kg/m3 | viscosity [2]: 0.381 ± 0.009 mPa·s | mass density (303.15 K): 907.68 ± 2.9 kg/m3 | viscosity [3]: 0.362 ± 0.009 mPa·s | mass density (308.15 K): 899.54 ± 3 kg/m3 | viscosity [4]: 0.345 ± 0.009 mPa·s | mass density (313.15 K): 891.5 ± 3.2 kg/m3 | viscosity [5]: 0.329 ± 0.009 mPa·s | mass density (318.15 K): 887.41 ± 3.2 kg/m3 | viscosity [6]: 0.314 ± 0.009 mPa·s | mass density (323.15 K): 882.14 ± 3.3 kg/m3 | viscosity [7]: 0.3 ± 0.009 mPa·s

Structure (SMILES): CCCCCCOC(=O)CCC [hexyl butanoate]
mass density (293.15 K): 860.73 ± 3.6 kg/m3 | viscosity (293.15 K): 1.351 ± 0.044 mPa·s | mass density (298.15 K): 851 ± 3.8 kg/m3 | viscosity (298.15 K): 1.234 ± 0.04 mPa·s | mass density (303.15 K): 846.52 ± 3.9 kg/m3 | viscosity (303.15 K): 1.131 ± 0.037 mPa·s | mass density (308.15 K): 841.51 ± 4 kg/m3 | viscosity (308.15 K): 1.014 ± 0.033 mPa·s | mass density (313.15 K): 837.46 ± 4 kg/m3 | viscosity (313.15 K): 0.961 ± 0.031 mPa·s | mass density (318.15 K): 834.65 ± 4.1 kg/m3 | viscosity (318.15 K): 0.889 ± 0.029 mPa·s | mass density (323.15 K): 830.78 ± 4.1 kg/m3 | viscosity (323.15 K): 0.825 ± 0.027 mPa·s | mass density (328.15 K): 828.19 ± 4.2 kg/m3 | viscosity (328.15 K): 0.768 ± 0.025 mPa·s | mass density (333.15 K): 826.77 ± 4.2 kg/m3 | viscosity (333.15 K): 0.716 ± 0.023 mPa·s | mass density (338.15 K): 823.81 ± 4.2 kg/m3 | viscosity (338.15 K): 0.669 ± 0.022 mPa·s | mass density (343.15 K): 820.76 ± 4.3 kg/m3 | viscosity (343.15 K): 0.627 ± 0.02 mPa·s

Structure (SMILES): CCCCCCOC(C)=O [hexyl ethanoate]
mass density (293.15 K): 872.9 ± 3.4 kg/m3 | viscosity [1]: 1.118 ± 0.013 mPa·s | mass density (298.15 K): 867.3 ± 3.5 kg/m3 | viscosity [2]: 1.036 ± 0.012 mPa·s | mass density (303.15 K): 862.6 ± 3.6 kg/m3 | viscosity [3]: 0.962 ± 0.012 mPa·s | mass density (308.15 K): 858.33 ± 3.6 kg/m3 | viscosity [4]: 0.895 ± 0.011 mPa·s | mass density (313.15 K): 854.9 ± 3.7 kg/m3 | viscosity [5]: 0.836 ± 0.011 mPa·s | mass density (318.15 K): 848.84 ± 3.8 kg/m3 | viscosity [6]: 0.782 ± 0.011 mPa·s | mass density (323.15 K): 844.21 ± 3.9 kg/m3 | viscosity [7]: 0.733 ± 0.01 mPa·s | mass density (328.15 K): 839.64 ± 4 kg/m3 | viscosity [8]: 0.689 ± 0.01 mPa·s | mass density (333.15 K): 835.15 ± 4 kg/m3 | viscosity [9]: 0.649 ± 0.01 mPa·s | mass density (338.15 K): 831.4 ± 4.1 kg/m3 | viscosity [10]: 0.612 ± 0.01 mPa·s | mass density (343.15 K): 826.3 ± 4.2 kg/m3 | viscosity [11]: 0.579 ± 0.01 mPa·s

The next lines start with the values.

mass density (293.15 K): 869.73 ± 7.4 kg/m3 | viscosity [1]: 0.831 ± 0.011 mPa·s | mass density (298.15 K): 865 ± 7.4 kg/m3 | viscosity [2]: 0.774 ± 0.01 mPa·s | mass density (303.15 K): 861.48 ± 7.5 kg/m3 | viscosity [3]: 0.723 ± 0.01 mPa·s | mass density (308.15 K): 857.88 ± 7.5 kg/m3 | viscosity [4]: 0.677 ± 0.01 mPa·s | mass density (313.15 K): 853.41 ± 7.5 kg/m3 | viscosity [5]: 0.635 ± 0.01 mPa·s | mass density (318.15 K): 849.32 ± 7.5 kg/m3 | viscosity [6]: 0.597 ± 0.01 mPa·s | mass density (323.15 K): 846.74 ± 7.5 kg/m3 | viscosity [7]: 0.563 ± 0.009 mPa·s | mass density (328.15 K): 841.59 ± 7.5 kg/m3 | viscosity [8]: 0.532 ± 0.009 mPa·s | mass density (333.15 K): 838.41 ± 7.5 kg/m3 | viscosity [9]: 0.503 ± 0.009 mPa·s | mass density (338.15 K): 835.48 ± 7.6 kg/m3 | viscosity [10]: 0.476 ± 0.009 mPa·s | mass density (343.15 K): 831.46 ± 7.6 kg/m3 | viscosity [11]: 0.452 ± 0.009 mPa·s
Structure (SMILES): CCOC(=O)C(C)CC (stereo not given) [ethyl 2-methylbutanoate]

mass density (293.15 K): 866.23 ± 6.5 kg/m3 | viscosity [1]: 0.805 ± 0.011 mPa·s | mass density (298.15 K): 864.01 ± 6.5 kg/m3 | viscosity [2]: 0.752 ± 0.011 mPa·s | mass density (303.15 K): 860.12 ± 6.5 kg/m3 | viscosity [3]: 0.703 ± 0.011 mPa·s | mass density (308.15 K): 855.98 ± 6.5 kg/m3 | viscosity [4]: 0.659 ± 0.01 mPa·s | mass density (313.15 K): 851.79 ± 6.6 kg/m3 | viscosity [5]: 0.62 ± 0.01 mPa·s | mass density (318.15 K): 847.39 ± 6.6 kg/m3 | viscosity [6]: 0.581 ± 0.01 mPa·s | mass density (323.15 K): 846.24 ± 6.6 kg/m3 | viscosity [7]: 0.544 ± 0.01 mPa·s | mass density (328.15 K): 842.35 ± 6.6 kg/m3 | viscosity [8]: 0.516 ± 0.009 mPa·s | mass density (333.15 K): 840.07 ± 6.6 kg/m3 | viscosity [9]: 0.485 ± 0.009 mPa·s | mass density (338.15 K): 836.31 ± 6.7 kg/m3 | viscosity [10]: 0.457 ± 0.009 mPa·s | mass density (343.15 K): 833.62 ± 6.7 kg/m3 | viscosity [11]: 0.431 ± 0.009 mPa·s
Structure (SMILES): CCOC(=O)CC(C)C [ethyl 3-methylbutanoate]

mass density (293.15 K): 900.48 ± 2.9 kg/m3 | viscosity [1]: 0.443 ± 0.009 mPa·s | mass density (298.15 K): 894.81 ± 3 kg/m3 | viscosity [2]: 0.421 ± 0.009 mPa·s | mass density (303.15 K): 887.14 ± 3.1 kg/m3 | viscosity [3]: 0.399 ± 0.009 mPa·s | mass density (308.15 K): 882.21 ± 3.2 kg/m3 | viscosity [4]: 0.381 ± 0.009 mPa·s | mass density (313.15 K): 878.92 ± 3.3 kg/m3 | viscosity [5]: 0.363 ± 0.009 mPa·s | mass density (318.15 K): 874.51 ± 3.4 kg/m3 | viscosity [6]: 0.346 ± 0.008 mPa·s | mass density (323.15 K): 870.39 ± 3.4 kg/m3 | viscosity [7]: 0.33 ± 0.008 mPa·s | mass density (328.15 K): 867.13 ± 3.5 kg/m3 | viscosity [8]: 0.315 ± 0.008 mPa·s | mass density (333.15 K): 864.72 ± 3.5 kg/m3 | viscosity [9]: 0.301 ± 0.008 mPa·s | mass density (338.15 K): 861.41 ± 3.6 kg/m3 | viscosity [10]: 0.288 ± 0.008 mPa·s | mass density (343.15 K): 858.36 ± 3.6 kg/m3 | viscosity [11]: 0.275 ± 0.008 mPa·s
Structure (SMILES): CCOC(C)=O [ethyl acetate]

mass density (293.15 K): 876.91 ± 6.4 kg/m3 | viscosity [1]: 0.662 ± 0.01 mPa·s | mass density (298.15 K): 874.42 ± 6.5 kg/m3 | viscosity [2]: 0.62 ± 0.009 mPa·s | mass density (303.15 K): 870.13 ± 6.5 kg/m3 | viscosity [3]: 0.583 ± 0.009 mPa·s | mass density (308.15 K): 866.21 ± 6.5 kg/m3 | viscosity [4]: 0.549 ± 0.009 mPa·s | mass density (313.15 K): 864.31 ± 6.5 kg/m3 | viscosity [5]: 0.519 ± 0.009 mPa·s | mass density (318.15 K): 861.32 ± 6.5 kg/m3 | viscosity [6]: 0.491 ± 0.009 mPa·s | mass density (323.15 K): 858.43 ± 6.5 kg/m3 | viscosity [7]: 0.465 ± 0.009 mPa·s | mass density (328.15 K): 854.44 ± 6.5 kg/m3 | viscosity [8]: 0.442 ± 0.009 mPa·s | mass density (333.15 K): 853.89 ± 6.5 kg/m3 | viscosity [9]: 0.42 ± 0.009 mPa·s | mass density (338.15 K): 851.32 ± 6.6 kg/m3 | viscosity [10]: 0.4 ± 0.009 mPa·s | mass density (343.15 K): 850.04 ± 6.6 kg/m3 | viscosity [11]: 0.382 ± 0.009 mPa·s
Structure (SMILES): CCCC(=O)OCC [ethyl butanoate]

mass density (293.15 K): 891.62 ± 6.4 kg/m3 | viscosity [1]: 0.523 ± 0.009 mPa·s | mass density (298.15 K): 884.1 ± 6.4 kg/m3 | viscosity [2]: 0.492 ± 0.009 mPa·s | mass density (303.15 K): 879.31 ± 6.4 kg/m3 | viscosity [3]: 0.464 ± 0.009 mPa·s | mass density (308.15 K): 874.12 ± 6.5 kg/m3 | viscosity [4]: 0.441 ± 0.009 mPa·s | mass density (313.15 K): 870.61 ± 6.5 kg/m3 | viscosity [5]: 0.418 ± 0.009 mPa·s | mass density (318.15 K): 867.34 ± 6.5 kg/m3 | viscosity [6]: 0.398 ± 0.009 mPa·s | mass density (323.15 K): 864.33 ± 6.5 kg/m3 | viscosity [7]: 0.378 ± 0.009 mPa·s | mass density (328.15 K): 860.89 ± 6.5 kg/m3 | viscosity [8]: 0.36 ± 0.009 mPa·s | mass density (333.15 K): 858.14 ± 6.5 kg/m3 | viscosity [9]: 0.344 ± 0.008 mPa·s | mass density (338.15 K): 856.81 ± 6.5 kg/m3 | viscosity [10]: 0.329 ± 0.008 mPa·s | mass density (343.15 K): 853.48 ± 6.5 kg/m3 | viscosity [11]: 0.315 ± 0.008 mPa·s
Structure (SMILES): CCOC(=O)CC [ethyl propanoate]
